Measured values from patent publication US9745321B2, “Fused pyrimidine compound, intermediate, preparation method therefor, and composition and application thereof” (SHANGHAI YINGLI PHARMACEUTICAL CO., LTD, priority 2013, dated 2017).

How the values were obtained:
Raji cells = assay: Inhibition of TNF-α generation of human Raji cell induced by human IgM; assay type: cell-based; conditions: 10 μg/ml IgM stimulation, 24 hrs, ELISA
Description: Screening Test for a Drug on Inhibiting TNF-α Generation of Human Raji Cell Induced by Human IgM
• 1. Raji cell lines (source of human Burkitt's lymphoma) were employed. • 2. 1×10^5/well Raji cells were plated onto a 96-well cell culture plate. • 3. Compounds to be screened were diluted to the corresponding test concentrations and added into the cell culture system 30 minutes before IgM stimulation. • 4. 10 μg/ml IgM monoclonal antibody was added into the cell culture system to stimulate the cells generating TNF-α. • 5. 24 hrs later, the amount of TNF-α generated by the cell system was measured by ELISA method. • 6.

PI3Kα = PI3Kα (Homo sapiens (Human), UniProt P42336); assay: PI3Kα enzyme activity inhibition IC50 evaluation assay; assay type: biochemical; conditions: ratio PI3Kα vs PI3Kδ
Sequence of PI3Kα (P42336 whole entry): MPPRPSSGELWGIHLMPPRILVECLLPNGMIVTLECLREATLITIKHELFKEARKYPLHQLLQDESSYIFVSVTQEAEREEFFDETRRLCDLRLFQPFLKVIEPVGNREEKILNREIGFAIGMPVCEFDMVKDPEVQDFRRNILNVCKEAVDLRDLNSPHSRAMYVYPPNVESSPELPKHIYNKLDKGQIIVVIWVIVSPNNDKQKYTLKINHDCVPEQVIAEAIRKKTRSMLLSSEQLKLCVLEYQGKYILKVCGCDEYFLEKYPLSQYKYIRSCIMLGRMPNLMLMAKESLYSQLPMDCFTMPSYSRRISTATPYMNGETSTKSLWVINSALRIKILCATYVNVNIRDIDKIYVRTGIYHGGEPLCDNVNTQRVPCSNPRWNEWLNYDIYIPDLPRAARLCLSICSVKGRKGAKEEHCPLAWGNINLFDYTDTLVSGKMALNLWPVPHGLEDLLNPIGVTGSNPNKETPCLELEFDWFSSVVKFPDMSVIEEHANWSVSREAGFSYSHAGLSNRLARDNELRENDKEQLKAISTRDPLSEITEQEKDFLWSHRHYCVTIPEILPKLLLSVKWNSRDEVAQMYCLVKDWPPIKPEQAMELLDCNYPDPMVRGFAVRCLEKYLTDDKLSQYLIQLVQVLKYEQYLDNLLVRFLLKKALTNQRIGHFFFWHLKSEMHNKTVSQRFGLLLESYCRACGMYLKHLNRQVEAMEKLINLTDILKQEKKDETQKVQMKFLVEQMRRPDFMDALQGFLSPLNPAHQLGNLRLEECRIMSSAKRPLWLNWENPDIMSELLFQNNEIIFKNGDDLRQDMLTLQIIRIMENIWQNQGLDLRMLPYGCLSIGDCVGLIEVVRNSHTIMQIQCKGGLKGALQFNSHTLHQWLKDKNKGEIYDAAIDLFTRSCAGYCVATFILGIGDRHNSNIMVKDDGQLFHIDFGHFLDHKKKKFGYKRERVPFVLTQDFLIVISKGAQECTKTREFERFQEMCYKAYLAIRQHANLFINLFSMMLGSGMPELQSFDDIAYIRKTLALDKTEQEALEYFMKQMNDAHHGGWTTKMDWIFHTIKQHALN
Sequence of PI3Kα (P27986 whole entry partner): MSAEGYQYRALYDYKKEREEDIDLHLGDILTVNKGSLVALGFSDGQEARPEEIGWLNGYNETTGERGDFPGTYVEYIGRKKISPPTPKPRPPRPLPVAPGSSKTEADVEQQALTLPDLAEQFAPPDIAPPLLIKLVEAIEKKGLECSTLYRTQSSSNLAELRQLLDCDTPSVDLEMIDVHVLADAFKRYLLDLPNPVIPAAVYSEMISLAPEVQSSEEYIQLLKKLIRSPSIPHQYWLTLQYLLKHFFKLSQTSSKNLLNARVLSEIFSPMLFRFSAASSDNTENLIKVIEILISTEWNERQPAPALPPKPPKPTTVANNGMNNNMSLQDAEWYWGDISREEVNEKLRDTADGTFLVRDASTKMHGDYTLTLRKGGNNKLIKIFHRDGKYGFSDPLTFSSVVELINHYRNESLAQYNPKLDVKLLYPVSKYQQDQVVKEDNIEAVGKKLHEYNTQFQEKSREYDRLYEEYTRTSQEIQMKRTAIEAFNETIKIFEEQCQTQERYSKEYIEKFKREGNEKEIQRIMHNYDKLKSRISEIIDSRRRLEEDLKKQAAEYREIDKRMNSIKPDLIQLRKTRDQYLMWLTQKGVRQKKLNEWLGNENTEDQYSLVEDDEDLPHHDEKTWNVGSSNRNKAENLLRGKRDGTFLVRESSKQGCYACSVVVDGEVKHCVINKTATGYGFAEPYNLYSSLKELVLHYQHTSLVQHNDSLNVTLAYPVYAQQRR
Description: (§1) PI3Kα, PI3Kδ, PI3Kβ and PI3Kγ Enzyme Activity Inhibition IC50 Evaluation Assay
(§2) • 1. Buffer preparation: 50 mM HEPES, pH 7.5, 3 mM MgCl2, 1 mM EGTA, 100 mM NaCl, 0.03% CHAPS. • 2. Compound was formulated in 100% DMSO in a concentration gradient, and added to a 384-well plate to a final DMSO concentration of 1%. • 3. PI3Kα, PI3Kδ, PI3Kβ and PI3Kγ enzymes were diluted to an optimum concentration with the following buffer: 50 mM HEPES, pH 7.5, 3 mM MgCl2, 1 mM EGTA, 100 mM NaCl, 0.03% CHAPS, 2 mM DTT, and transferred to a 384-well plate and incubated with the compound for a certain time. • 4. Substrate was diluted to an optimum concentration with the following buffer: 50 mM HEPES, pH 7.5, 3 mM MgCl2, 1 mM EGTA, 100 mM NaCl, 0.03% CHAPS, 2 mM DTT, 50 μM PIP2, 25 μM ATP; then added to a 384-well plate to initiate the reaction, and for PI3Kα, PI3Kβ and PI3Kγ at room temperature reacted for 1 hr, for PI3Kδ at room temperature reacted for 2 hrs. For PI3Kβ and PI3Kγ, it was still necessary to further add 10 μL ADP-Glo Detection Reagent, and then equilibrated at room temperature for 30 minutes. • 5. Read Luminescense with FlexStation, and calculate the inhibition rate as the average of two tests.

PI3Kδ = PI3Kδ (Homo sapiens (Human), UniProt O00329); assay: PI3Kδ enzyme activity inhibition IC50 evaluation assay; assay type: biochemical; conditions: luminescence, 25 μM ATP, 50 μM PIP2, 2 hrs room temperature
Sequence of PI3Kδ (O00329 whole entry): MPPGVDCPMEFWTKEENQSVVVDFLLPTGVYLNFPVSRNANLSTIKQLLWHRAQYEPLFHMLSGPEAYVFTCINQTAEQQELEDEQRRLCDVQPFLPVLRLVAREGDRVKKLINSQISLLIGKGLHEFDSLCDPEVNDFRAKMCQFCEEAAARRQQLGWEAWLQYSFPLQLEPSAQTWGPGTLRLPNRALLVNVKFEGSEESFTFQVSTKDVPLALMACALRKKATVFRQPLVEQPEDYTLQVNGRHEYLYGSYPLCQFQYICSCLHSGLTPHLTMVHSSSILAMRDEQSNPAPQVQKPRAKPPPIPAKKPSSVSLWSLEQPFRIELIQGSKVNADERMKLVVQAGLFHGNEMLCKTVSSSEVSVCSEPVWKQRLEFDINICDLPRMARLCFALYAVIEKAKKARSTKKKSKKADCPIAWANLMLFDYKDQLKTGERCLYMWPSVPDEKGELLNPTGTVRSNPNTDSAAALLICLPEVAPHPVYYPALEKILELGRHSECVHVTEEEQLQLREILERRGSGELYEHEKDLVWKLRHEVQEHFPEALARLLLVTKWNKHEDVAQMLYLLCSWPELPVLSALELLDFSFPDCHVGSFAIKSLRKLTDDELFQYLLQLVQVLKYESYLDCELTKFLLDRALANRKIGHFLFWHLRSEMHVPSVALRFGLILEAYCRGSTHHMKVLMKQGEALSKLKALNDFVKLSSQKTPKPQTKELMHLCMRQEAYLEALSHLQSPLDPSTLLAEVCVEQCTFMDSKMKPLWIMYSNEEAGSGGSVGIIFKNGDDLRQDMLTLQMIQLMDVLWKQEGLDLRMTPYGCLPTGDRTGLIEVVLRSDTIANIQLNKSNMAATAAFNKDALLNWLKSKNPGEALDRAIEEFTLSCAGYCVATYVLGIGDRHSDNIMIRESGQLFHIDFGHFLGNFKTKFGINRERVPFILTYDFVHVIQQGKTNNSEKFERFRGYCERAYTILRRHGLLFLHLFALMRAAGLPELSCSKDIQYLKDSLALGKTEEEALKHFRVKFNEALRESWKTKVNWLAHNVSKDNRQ
Sequence of PI3Kδ (P27986 whole entry partner): as the sequence (P27986 whole entry partner) above
Description: as §1
as §2, with “Substrate was diluted to an optimum concentration with the following buffer: 50 mM HEPES, pH 7.5, 3 mM MgCl2, 1 mM EGTA, 100 mM NaCl, 0.03% CHAPS, 2 mM DTT, 50 μM PIP2, 25 μM ATP; then added to a 384-well plate to initiate the reaction, and for PI3Kα, PI3Kβ and PI3Kγ at room temperature reacted for 1 hr, for PI3Kδ at room temperature reacted for 2 hrs.” left out

Structure (SMILES) | IC50 (Raji cells; Homo sapiens) [nM] | α/δ selectivity (PI3Kα) | IC50 (Raji cells) [nM] | IC50 (PI3Kδ) [nM]
CC[C@H](Nc1ncnc2[nH]cnc12)c1nc2cccc(F)c2c(=O)n1-c1ccccc1 [CAL-101, idelalisib, reference compound] | 29.8 |  |  | 
c1cc(-c2nc(N3CCOCC3)nc3c(CN4CCN(C5CCOCC5)CC4)csc23)c2cc[nH]c2c1 [Compound 10] |  | >400 | 28 | 25
c1cc(-c2nc(N3CCOCC3)nc3c(CN4CCN(C5COC5)CC4)csc23)c2cc[nH]c2c1 [Compound 11] |  | >588 | 41.1 | 17
CC(=O)N1CCN(Cc2csc3c(-c4cccc5[nH]ccc45)nc(N4CCOCC4)nc23)CC1 [Compound 14] |  | 700 | 25.6 | 3.8
COc1ncc(-c2nc(N3CCOCC3)nc3c(CN4CCC(C(C)(C)O)CC4)c(C)sc23)cc1NS(C)(=O)=O [Compound 60] |  | 147 | 2 | 7.1
COc1ncc(-c2nc(N3CCOCC3)nc3c(CN4CCN(C(=O)CO)CC4)c(C)sc23)cc1NS(C)(=O)=O [Compound 71] |  | 13 | 8.6 | 6.8
COc1ncc(-c2nc(N3CCOCC3)nc3c(CN4CCC(C(C)(C)O)CC4)c(C)sc23)cc1NS(=O)(=O)C1CC1 [Compound 79] |  | 582 | 14.5 | 9.4
COc1ncc(-c2nc(N3CCOCC3)nc3c(CN4CCC(OC)CC4)c(C)sc23)cc1NS(=O)(=O)C1CC1 [Compound 81] |  | 374 | 43 | 24
COc1ncc(-c2nc(N3CCOCC3)nc3c(CN4CCN(C(=O)C(F)(F)F)CC4)c(C)sc23)cc1NS(=O)(=O)C1CC1 [Compound 82] |  | 143 | 76.8 | 15
COc1ncc(-c2nc(N3CCOCC3)nc3c(CN4CCN(CC(F)(F)F)CC4)c(C)sc23)cc1NS(=O)(=O)C1CC1 [Compound 84] |  | >213 | 30.4 | 47
COc1ncc(-c2nc(N3CCOCC3)nc3c(CN4CCN(C(C)(C)C)CC4)c(C)sc23)cc1NS(C)(=O)=O [Compound 89] |  | 48 | 1.3 | 2.6
COc1ncc(-c2nc(N3CCOCC3)nc3c(CN4CCN(C(=O)C(F)(F)F)CC4)c(C)sc23)cc1NS(C)(=O)=O [Compound 90] |  | 69 | 31.2 | 4.9
COc1ncc(-c2nc(N3CCOCC3)nc3c(CN4CCC(CO)CC4)c(C)sc23)cc1NS(C)(=O)=O [Compound 117] |  | 213 |  | 7.2
COc1ncc(-c2nc(N3CCOCC3)nc3c(CN4CCC(C(C)(C)O)CC4)c(C)sc23)cc1NS(=O)(=O)C(F)(F)F [Compound 118] |  | 92 |  | 2.6
COc1ncc(-c2nc(N3CCOCC3)nc3c(CN4CCN(C(C)(C)CO)CC4)c(C)sc23)cc1NS(C)(=O)=O [Compound 119] |  | 84 |  | 5
Cc1sc2c(-c3cnc(Cl)c(NS(C)(=O)=O)c3)nc(N3CCOCC3)nc2c1CN1CCC(C(C)(C)O)CC1 [Compound 120] |  | 24 |  | 5
CCN(CC)C1CN(Cc2c(C)sc3c(-c4cnc(OC)c(NS(C)(=O)=O)c4)nc(N4CCOCC4)nc23)C1 [Compound 122] |  | 172 |  | 9
COc1ncc(-c2nc(N3CCOCC3)nc3c(CN4CCC(N5CCCC5)C(F)(F)C4)c(C)sc23)cc1NS(C)(=O)=O (centres unmarked) [Compound 123] |  | 175 |  | 6.8
COc1ncc(-c2nc(N3CCOCC3)nc3c(CN4CCC(N5CCC[C@H]5C(F)(F)F)CC4)c(C)sc23)cc1NS(C)(=O)=O [Compound 124] |  | 430 |  | 3.1
COc1ncc(-c2nc(N3CCOCC3)nc3c(CN4CCC(N5CCC[C@H]5C)CC4)c(C)sc23)cc1NS(C)(=O)=O [Compound 125] |  | 239 |  | 2.6
COc1ncc(-c2nc(N3CCOCC3)nc3c(CN4CCC(N5CCC(F)CC5)CC4)c(C)sc23)cc1NS(C)(=O)=O [Compound 128] |  | 223 |  | 6

Structure (SMILES) | IC50 (Raji cells; Homo sapiens) [nM] | α/δ selectivity (PI3Kα) | IC50 (Raji cells) [nM] | IC50 (PI3Kδ) [nM]
COc1ncc(-c2nc(N3CCOCC3)nc3c(CN4CC[C@H](N5CCCC5)C4)c(C)sc23)cc1NS(C)(=O)=O [Compound 129] |  | 100 |  | 19
COc1ncc(-c2nc(N3CCOCC3)nc3c(CN4CC[C@@H](N5CCCC5)C4)c(C)sc23)cc1NS(C)(=O)=O [Compound 130] |  | 273 |  | 6.7
COc1ncc(-c2nc(N3CCOCC3)nc3c(CN4CCC(C5CC5)CC4)c(C)sc23)cc1NS(C)(=O)=O [Compound 131] |  | 627 |  | 6.2
COc1ncc(-c2nc(N3CCOCC3)nc3c(CN4CCC(N5CC=CC5)CC4)c(C)sc23)cc1NS(C)(=O)=O [Compound 132] |  | 35 |  | 10
COc1ncc(-c2nc(N3CCOCC3)nc3c(CN4CC[C@@H](N5CCC[C@H]5C)C4)c(C)sc23)cc1NS(C)(=O)=O [Compound 133] |  | 185 |  | 7.7
COc1ncc(-c2nc(N3CCOCC3)nc3c(CN4CC[C@@H](N5CCC[C@@H]5C)C4)c(C)sc23)cc1NS(C)(=O)=O [Compound 134] |  | 188 |  | 4
COc1ncc(-c2nc(N3CCOCC3)nc3c(CCN4CCCCC4)c(C)sc23)cc1NS(C)(=O)=O [Compound 135] |  | 226 |  | 6.3
C=C1CCN(Cc2c(C)sc3c(-c4cnc(OC)c(NS(C)(=O)=O)c4)nc(N4CCOCC4)nc23)CC1 [Compound 136] |  | 268 |  | 7.8
COc1ncc(-c2nc(N3CCOCC3)nc3c(CN4CCC5(CC4)CC5)c(C)sc23)cc1NS(C)(=O)=O [Compound 137] |  | 309 |  | 11
COc1ncc(-c2nc(N3CCOCC3)nc3c(CN4CCc5ccccc5C4)c(C)sc23)cc1NS(C)(=O)=O [Compound 138] |  | 67 |  | 34
COc1ncc(-c2nc(N3CCOCC3)nc3c(CN4CCC(S(C)(=O)=O)CC4)c(C)sc23)cc1NS(C)(=O)=O [Compound 139] |  | 69 |  | 3.2
COc1ncc(-c2nc(N3CCOCC3)nc3c(CN4CCN(C)C(=O)C4)c(C)sc23)cc1NS(C)(=O)=O [Compound 140] |  | 55 |  | 3.2
COc1ncc(-c2nc(N3CCOCC3)nc3c(CN4CC5CC5C4)c(C)sc23)cc1NS(C)(=O)=O (centres unmarked) [Compound 141] |  | 120 |  | 9
COc1ncc(-c2nc(N3CCOCC3)nc3c(CN4CCN(CC(C)(C)O)CC4)c(C)sc23)cc1NS(C)(=O)=O [Compound 142] |  | 60 |  | 3.7
COc1ncc(-c2nc(N3CCOCC3)nc3c(CN4CCc5sccc5C4)c(C)sc23)cc1NS(C)(=O)=O [Compound 143] |  | 107 |  | 32
COc1ncc(-c2nc(N3CCOCC3)nc3c(CN4CCn5ccnc5C4)c(C)sc23)cc1NS(C)(=O)=O [Compound 144] |  | 56 |  | 3.4
COc1ncc(-c2nc(N3CCOCC3)nc3c(CN4CCC(OC(C)C)CC4)c(C)sc23)cc1NS(C)(=O)=O [Compound 145] |  | 287 |  | 3.8
COc1ncc(-c2nc(N3CCOCC3)nc3c(CN4CCC(N5CC(F)(F)C5)CC4)c(C)sc23)cc1NS(C)(=O)=O [Compound 146] |  | 120 |  | 2.9
COc1ncc(-c2nc(N3CCOCC3)nc3c(CN4CC(C(C)(C)O)C4)c(C)sc23)cc1NS(C)(=O)=O [Compound 151] |  | 41 |  | 15
COc1ncc(-c2nc(N3CCOCC3)nc3c(OC4CCOCC4)c(C)sc23)cc1NS(C)(=O)=O [Compound 152] |  | 12 |  | 15.6
